Here are results for 27 molecules from patent publication US20120015907A1, “Furopyridine compounds and uses thereof” (NOVARTIS AG, priority 2010, published 2012).

Molecules are shown by their SMILES.

The first test has as its target T1, HCV polymerase (Hepatitis C virus genotype 1b, UniProt Q9WMX2).
T1 construct: (His)6 (C)
Put plainly: biochemical. Conditions: NS5B polymerase IC50 μM, polymerase assay of Biological Example 1. The text has this: A number of assays have been published to assess these activities. A general method that assesses the gross increase of HCV virus in culture was disclosed in U.S. Pat. No. 5,738,985 to Miles et al. In vitro assays have been reported in Ferrari et al. Jnl. of Vir., 73:1649-1654, 1999; Ishii et al., Hepatology, 29:1227-1235, 1999; Lohmann et al., Jnl of Bio. Chem., 274:10807-10815, 1999; and Yamashita et al., Jnl. of Bio. Chem., 273:15479-15486, 1998.
WO 97/12033, filed on Sep. 27, 1996, by Emory University, listing C. Hagedorn and A. Reinoldus as inventors, which claims priority to U.S. Provisional Patent Application Ser. No. 60/004,383, filed on September 1995, described an HCV polymerase assay that can be used to evaluate the activity of the of the compounds described herein. Another HCV polymerase assay has been reported by Bartholomeusz, et al., Hepatitis C Virus (HCV) RNA polymerase assay using cloned HCV non-structural proteins; Antiviral Therapy 1996:1(Supp 4) 18-24.
As usually defined, the IC50 is the midpoint of a concentration-inhibition curve. In the case of `CNC(=O)c1c(-c2ccc(C)cc2)oc2nc(N(CCCCP(C)(=O)O)S(C)(=O)=O)c(I)cc12` [Example 23.9999, 4-(N-(5-iodo-3-(methylcarbamoyl)-2-p-tolylfuro[2,3-b]pyridin-6-yl)methylsulfonamido)butyl (methyl)phosphinic acid], half-maximal inhibition (IC50) was put at 0.013 µM.
On the same count and under the same terms, with `CCOP(C)(=O)CCCCN(c1nc2oc(-c3ccc(C)cc3)c(C(=O)NC)c2cc1I)S(C)(=O)=O` (stereo not drawn) [Example 23.9995, ethyl 4-(N-(5-iodo-3-(methylcarbamoyl)-2-p-tolylfuro[2,3-b]pyridin-6-yl)methylsulfonamido)butyl (methyl)phosphinate] the figure was 0.017 µM.
Molecule `CCOP(C)(=O)CCCCCN(c1nc2oc(-c3ccc(C)cc3)c(C(=O)NC)c2cc1C1CC1)S(C)(=O)=O` (stereo not drawn) [Example 23.99995, ethyl 5-(N-(5-cyclopropyl-3-(methylcarbamoyl)-2-p-tolylfuro[2,3-b]pyridin-6-yl)methylsulfonamido)pentyl (methyl)phosphinate] yielded an IC50 of 0.009 µM.
On the same count and under the same terms, with `CCOP(C)(=O)CCCCCN(c1nc2oc(-c3ccc(CC)cc3)c(C(=O)NC)c2cc1I)S(C)(=O)=O` (stereo not drawn) [Example 23.9992, ethyl 5-(N-(2-(4-ethylphenyl)-5-iodo-3-(methylcarbamoyl)furo[2,3-b]pyridin-6-yl)methylsulfonamido)pentyl (methyl)phosphinate] the figure was 0.02 µM; with `CNC(=O)c1c(-c2ccc(C)cc2)oc2nc(N(CCCP(C)(=O)O)S(C)(=O)=O)c(C3CC3)cc12` [Example 23.99998, 3-(N-(5-cyclopropyl-3-(methylcarbamoyl)-2-p-tolylfuro[2,3-b]pyridin-6-yl)methylsulfonamido)propyl (methyl)phosphinic acid], 0.005 µM.

The test is the same for the next values; noted with them: polymerase assay of Biological Example 1; read-out: NS5B polymerase IC50.
For `C=C1OCCN(S(C)(=O)=O)c2nc3oc(-c4ccc(F)cc4)c(C(=O)NC)c3cc21` [Example 36.1, 2-(4-Fluoro-phenyl)-9-methanesulfonyl-5-methylene-5,7,8,9-tetrahydro-1,6-dioxa-9,10-diaza-cyclohepta[f]indene-3-carboxylic acid methylamide], the IC50 came to 0.046 µM.
The same measure, in the same setting: the result for `CCc1cc2c(C(=O)NC)c(-c3ccc(F)cc3)oc2nc1N(CCOCCOC)S(C)(=O)=O` [Example 21.8, 5-ethyl-2-(4-fluorophenyl)-6-(N-(2-(2-methoxyethoxy)ethyl)methylsulfonamido)-N-methylfuro[2,3-b]pyridine-3-carboxamide] reads 0.688 µM.
Consider `CNC(=O)c1c(-c2ccc(F)cc2)oc2nc(N(C)S(C)(=O)=O)c(CCCC(N)=O)cc12` [Example 4.3, 5-(4-amino-4-oxobutyl)-2-(4-fluorophenyl)-N-methyl-6-(N-methylmethylsulfonamido)furo[2,3-b]pyridine-3-carboxamide], for which the IC50 is 0.132 µM.
Turning to `C#Cc1cc2c(C(=O)NC)c(-c3ccc(F)cc3)oc2nc1N(C)S(C)(=O)=O` [Example 7, 5-ethynyl-2-(4-fluorophenyl)-N-methyl-6-(N-methylmethylsulfonamido)furo[2,3-b]pyridine-3-carboxamide], the IC50 came out at 0.06 µM.
On the same count and under the same terms, with `CCc1cc2c(C(=O)NC)c(-c3ccc(F)cc3)oc2nc1N(CCCOc1ccccc1OC)S(C)(=O)=O` [Example 21.92, 5-ethyl-2-(4-fluorophenyl)-6-(N-(3-(2-methoxyphenoxy)propyl)methylsulfonamido)-N-methylfuro[2,3-b]pyridine-3-carboxamide] the figure was 0.352 µM; with `C=Cc1cc2c(C(=O)NC)c(-c3ccc(F)cc3)oc2nc1N(CCCCC(=O)O)S(C)(=O)=O` [Example 24.1, 5-(N-(2-(4-fluorophenyl)-3-(methylcarbamoyl)-5-vinylfuro[2,3-b]pyridin-6-yl)methylsulfonamido) pentanoic acid], 0.078 µM.
In the case of `CNC(=O)c1c(-c2ccc(C)cc2)oc2nc(N(CCCCCCCC(=O)O)S(C)(=O)=O)c(C3CC3)cc12` [Example 29.991, 8-(N-(5-cyclopropyl-3-(methylcarbamoyl)-2-p-tolylfuro[2,3-b]pyridin-6-yl)methylsulfonamido) octanoic acid], the IC50 amounted to 0.004 µM.
On the same count and under the same terms, the result for `CCc1cc2c(C(=O)NC)c(-c3ccc(F)cc3)oc2nc1N(CCN(C)S(=O)(=O)c1ccccc1)S(C)(=O)=O` [Example 22.995, 5-ethyl-2-(4-fluorophenyl)-N-methyl-6-(N-(2-(N-methylphenylsulfonamido)ethyl)methylsulfonamido)furo[2,3-b]pyridine-3-carboxamide] reads 0.024 µM; that for `CNC(=O)c1c(-c2ccc(F)cc2)oc2nc(N(C)S(C)(=O)=O)c(C(C)O)cc12` (stereo not drawn) [Example 11, 2-(4-fluorophenyl)-5-(1-hydroxyethyl)-N-methyl-6-(N-methylmethylsulfonamido)furo[2,3-b]pyridine-3-carboxamide], 0.825 µM; that for `CCc1cc2c(C(=O)NC)c(-c3ccc(F)cc3)oc2nc1N(CCN1CCN(C(=O)OC(C)(C)C)CC1)S(C)(=O)=O` [Example 21.998, tert-butyl 4-(2-(N-(5-ethyl-2-(4-fluorophenyl)-3-(methylcarbamoyl)furo[2,3-b]pyridin-6-yl)methylsulfonamido)ethyl)piperazine-1-carboxylate], 0.428 µM.
Still for that read-out and setting: the result for `CCc1cc2c(C(=O)NC)c(-c3ccc(F)cc3)oc2nc1N(CCCS(=O)(=O)C(F)(F)F)S(C)(=O)=O` [Example 23.96, 5-ethyl-2-(4-fluorophenyl)-N-methyl-6-(N-(3-(trifluoromethylsulfonyl)propyl)methylsulfonamido) furo[2,3-b]pyridine-3-carboxamide] reads 0.189 µM; that for `CCc1cc2c(C(=O)NC)c(-c3ccc(F)cc3)oc2nc1N(C[C@@H](C)Cc1ccc(OC)nc1)S(C)(=O)=O` [Example 21.6, (S)-5-ethyl-2-(4-fluorophenyl)-6-(N-(3-(6-methoxypyridin-3-yl)-2-methylpropyl)methylsulfonamido)-N-methylfuro[2,3-b]pyridine-3-carboxamide], 0.948 µM.
The same measure, in the same setting: the result for `CNC(=O)c1c(-c2ccc(F)cc2)oc2nc(N(C)S(C)(=O)=O)c(CCCCC(N)=O)cc12` [Example 4.95, 5-(5-amino-5-oxopentyl)-2-(4-fluorophenyl)-N-methyl-6-(N-methylmethylsulfonamido)furo[2,3-b]pyridine-3-carboxamide] reads 0.016 µM.
Take `CCc1cc2c(C(=O)NC)c(-c3ccc(F)cc3)oc2nc1N(CCCOc1ccccc1C#N)S(C)(=O)=O` [Example 21.5, 6-(N-(3-(2-cyanophenoxy)propyl)methylsulfonamido)-5-ethyl-2-(4-fluorophenyl)-N-methylfuro[2,3-b]pyridine-3-carboxamide]: the half-maximal inhibitory concentration (IC50) came to 0.191 µM.
As to `CCc1cc2c(C(=O)NC)c(-c3ccc(F)cc3)oc2nc1N(CCCC(=O)OC)S(C)(=O)=O` [Example 21.1, methyl 4-(N-(5-ethyl-2-(4-fluorophenyl)-3-(methylcarbamoyl)furo[2,3-b]pyridin-6-yl)methylsulfonamido)butanoate], the IC50 is 0.052 µM.
Same read-out and setting: with `CNC(=O)c1c(-c2ccc(F)cc2)oc2nc(N(C)S(C)(=O)=O)c(CCCS(C)(=O)=O)cc12` [Example 4.94, 2-(4-fluorophenyl)-N-methyl-6-(N-methylmethylsulfonamido)-5-(3-(methylsulfonyl)propyl)furo[2,3-b]pyridine-3-carboxamide] the figure was 0.208 µM; with `CNC(=O)c1c(-c2ccc(C)cc2)oc2nc(N(CCCC(CC#N)C(=O)O)S(C)(=O)=O)c(C3CC3)cc12` (stereo not drawn) [Example 29.9999, 2-(cyanomethyl)-5-(N-(5-cyclopropyl-3-(methylcarbamoyl)-2-p-tolylfuro[2,3-b]pyridin-6-yl)methylsulfonamido) pentanoic acid], 0.002 µM; with `CCc1cc2c(C(=O)NC)c(-c3ccc(F)cc3)oc2nc1N(CCCC#N)S(C)(=O)=O` [Example 21.991, 6-(N-(3-cyanopropyl)methylsulfonamido)-5-ethyl-2-(4-fluorophenyl)-N-methylfuro[2,3-b]pyridine-3-carboxamide], 0.074 µM.
Still for that read-out and setting: with `CCc1cc2c(C(=O)NC)c(-c3ccc(F)cc3)oc2nc1N(CCOc1cccc(C(=O)OC)c1)S(C)(=O)=O` [Example 22.6, methyl 3-(2-(N-(5-ethyl-2-(4-fluorophenyl)-3-(methylcarbamoyl)furo[2,3-b]pyridin-6-yl)methylsulfonamido)ethoxy)benzoate] the figure was 0.251 µM; with `CCc1cc2c(C(=O)NC)c(-c3ccc(F)cc3)oc2nc1N(CCc1ccc(OC)cc1)S(C)(=O)=O` [Example 21.993, 5-ethyl-2-(4-fluorophenyl)-6-(N-(4-methoxyphenethyl)methylsulfonamido)-N-methylfuro[2,3-b]pyridine-3-carboxamide], 0.228 µM; with `CNC(=O)c1c(-c2ccc(C)cc2C)oc2nc(N(CCCCC(=O)O)S(C)(=O)=O)c(C3CC3)cc12` [Example 29.99996, 5-(N-(5-cyclopropyl-2-(2,4-dimethylphenyl)-3-(methylcarbamoyl)furo[2,3-b]pyridin-6-yl)methylsulfonamido) pentanoic acid], 0.037 µM.
On the same count and under the same terms, with `CNC(=O)c1c(-c2ccc(F)cc2)oc2nc(N(C)S(C)(=O)=O)c(C(C)=O)cc12` [Example 10, 5-acetyl-2-(4-fluorophenyl)-N-methyl-6-(N-methylmethylsulfonamido)furo[2,3-b]pyridine-3-carboxamide] the figure was 0.467 µM.
